Measurements as given in ChEMBL document CHEMBL1158050, “Minor sesquiterpenes with new carbon skeletons from the brown alga Dictyopteris divaricata” (J Nat Prod, 2006).

Assays:
Type in all cases: functional, cell-based
HCT-8 = experiment: Cytotoxicity against human HCT8 cells by MTT assay
BGC-823 = experiment: Cytotoxicity against human BGC-823 cells by MTT assay
Bel-7402 = experiment: Cytotoxicity against human Bel-7402 cells by MTT assay
A549 = experiment: Cytotoxicity against human A549 cells by MTT assay
MCF7 = experiment: Cytotoxicity against human MCF7 cells by MTT assay

Measured: IC50

CC(=O)[C@@H]1C[C@]2(O)[C@@H]([C@H]1O)[C@H](C(C)C)CC[C@H]2C
> 10 µg/mL: HCT-8 | BGC-823 | Bel-7402 | A549 | MCF7

CC(=O)[C@H]1C[C@]2(O)[C@@H]([C@@H]1O)[C@H](C(C)C)CC[C@H]2C
> 10 µg/mL: HCT-8 | BGC-823 | Bel-7402 | A549 | MCF7

CC(=O)C1=C2[C@H](C(C)C)CC[C@@H](C)[C@@]2(O)CC1=O
> 10 µg/mL: HCT-8 | BGC-823 | Bel-7402 | A549 | MCF7

CC(C)[C@@H]1CC[C@@H](C)[C@@]2(O)C1=CC(=O)[C@@H]2C(C)O (stereo not given in full)
> 10 µg/mL: HCT-8 | BGC-823 | Bel-7402 | A549 | MCF7

CC(=O)C1=C[C@@H]2[C@H](C(C)C)CC[C@@H](C)[C@]2(O)C1
> 10 µg/mL: HCT-8 | BGC-823 | Bel-7402 | A549 | MCF7

CC(=O)C1=C2[C@@H](C)CC[C@H](C(C)C)[C@@]2(O)CC1=O
> 10 µg/mL: HCT-8 | BGC-823 | Bel-7402 | A549 | MCF7
